Source: publication PMC10449633 (Nature Chemical Biology, 2023)
pIC50: −log10 of the molar value. “And” between values parts separate entries of the source, which are not always exact repeats. Equal values may be shown once. Read-outs that look alike come from different tables or passages of the source. Numbered stars: 1 amine (or outer) side, 2 acyl side, 3 side chain; on linkers, the order of the positions; unused ones are H or OH. Square brackets hold non-standard residues; d marks the D form. Peptide text beside a SMILES is read from it. ξ: configuration not given here. X1 = CN(C(Cc1cn(Cc2ccc(Br)cc2)c2ccccc12)C(=O)[*:2])[*:1]; ξAla(CF3) = NC(CC(F)(F)F)C(=O)O; X2 = N#CCCC(O[*:1])C(=O)[*:2]; NMeL = CN[CH](CC(C)C)C(=O)O; NMeA = CN[CH](C)C(=O)O

Assays:
WT Sec61α = target: T1, WT Sec61α (Canis lupus familiaris, UniProt P38377); assay: GLuc secretion reporter fused to full-length IL-2 or TNF, cells stably expressing WT Sec61α; format: cell-based, canine; settings: for Sec61 WT - Hu IL2(FL) / Sec61 WT - Hu PD1(ss) / Sec61 WT - Hu TNFa(FL): replicate columns
T1 construct: expressed in transfected cells
T1 sequence (P60468 whole entry, the tested form may be a part): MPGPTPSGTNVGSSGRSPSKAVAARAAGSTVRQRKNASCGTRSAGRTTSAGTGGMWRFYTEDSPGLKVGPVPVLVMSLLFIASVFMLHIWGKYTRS
T1 sequence (P38377 whole entry, the tested form may be a part): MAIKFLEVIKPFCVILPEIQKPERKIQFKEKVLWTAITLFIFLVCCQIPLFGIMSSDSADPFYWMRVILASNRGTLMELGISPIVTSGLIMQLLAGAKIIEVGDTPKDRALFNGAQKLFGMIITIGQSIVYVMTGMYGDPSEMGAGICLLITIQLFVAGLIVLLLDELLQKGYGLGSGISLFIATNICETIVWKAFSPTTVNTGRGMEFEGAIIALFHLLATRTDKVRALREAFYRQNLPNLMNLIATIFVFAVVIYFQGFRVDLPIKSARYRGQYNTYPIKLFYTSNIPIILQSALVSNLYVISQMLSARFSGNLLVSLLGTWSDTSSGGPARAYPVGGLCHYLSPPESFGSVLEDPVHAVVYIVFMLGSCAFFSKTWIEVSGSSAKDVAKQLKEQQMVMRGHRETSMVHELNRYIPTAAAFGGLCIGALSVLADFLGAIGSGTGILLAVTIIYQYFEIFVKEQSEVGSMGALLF
T1 sequence (P60059 whole entry, further chain, the tested form may be a part): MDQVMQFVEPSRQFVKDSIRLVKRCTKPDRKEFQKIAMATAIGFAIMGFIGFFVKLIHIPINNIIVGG

Sec61 = target: T2, Sec61 (Homo sapiens, UniProt P61619); assay: cell-based; format: cell-based; settings: for remaining activity at 0.000660151 µM: Drug nM (log10) 0.660151; for remaining activity at 0.00050805 µM: Drug nM (log10) -0.29409
T2 construct: endogenous in cells
T2 sequence (P61619 whole entry): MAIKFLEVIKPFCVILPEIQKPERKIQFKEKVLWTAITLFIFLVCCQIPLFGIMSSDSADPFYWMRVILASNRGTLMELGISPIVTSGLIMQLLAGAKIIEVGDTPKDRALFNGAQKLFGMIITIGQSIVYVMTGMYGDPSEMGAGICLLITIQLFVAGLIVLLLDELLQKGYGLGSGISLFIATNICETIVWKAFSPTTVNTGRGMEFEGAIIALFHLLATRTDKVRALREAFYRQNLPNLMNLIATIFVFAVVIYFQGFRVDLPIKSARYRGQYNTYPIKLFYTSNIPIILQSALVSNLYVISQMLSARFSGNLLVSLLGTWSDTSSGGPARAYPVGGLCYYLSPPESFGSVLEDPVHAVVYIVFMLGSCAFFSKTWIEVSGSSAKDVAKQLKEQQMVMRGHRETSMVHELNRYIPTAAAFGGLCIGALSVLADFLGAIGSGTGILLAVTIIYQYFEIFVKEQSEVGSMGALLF
T2 sequence (P60059 whole entry, further chain): as the sequence (P60059 whole entry, further chain, the tested form may be a part) above
T2 sequence (P60468 whole entry, further chain): as the sequence (P60468 whole entry, the tested form may be a part) above

Sec61α (HEK 293 FRT) = target: T3, Sec61α (HEK 293 FRT) (Homo sapiens, UniProt P61619); assay: Luciferase reporter assay in parental HEK 293 FRT cells; format: cell-based; settings: HEK293, 24 h
T3 construct: host or cells: HEK293 Flp-In T-REx (parental, 'HEK 293 FRT')
T3 sequence (P60468 whole entry): as the sequence (P60468 whole entry, the tested form may be a part) above
T3 sequence (P60059 whole entry, further chain): as the sequence (P60059 whole entry, further chain, the tested form may be a part) above
T3 sequence (P61619 whole entry): as the sequence (P61619 whole entry) above
Source text: All mutants were sequence verified.

[1] = test system: human peripheral blood mononuclear cells (PBMCs); assay: Cytokine secretion assay, stimulated human PBMCs (MSD U-PLEX); format: cell-based; settings: for pIC50: 24 h, tested 0.025–25,000 nM
[2] = HEK-293T, 24 h, VCAM signal peptide, read-out: secreted luciferase activity (% of no-drug control)
[3] = HEK-293T, 24 h, pPL signal peptide, read-out: secreted luciferase activity (% of no-drug control)

**Q.** `CC(C)CC1NC(=O)C(Cc2cn(Cc3ccc(Br)cc3)c3ccccc23)N(C)C(=O)C(CC(F)(F)F)NC(=O)C(CC(C)C)N(C)C(=O)C(CC(F)(F)F)NC(=O)C(CCC#N)OC(=O)C(C)N(C)C1=O` (centres unmarked) [KZR-8445] (cyclo([X1]L[NMeA][X2][ξAla(CF3)][NMeL][ξAla(CF3)]); configuration not given here) was tested. Which “Sec61 WT - Hu IL2(FL)” value (WT Sec61α; 0.32 nM) did it give?
**A.** 112 and 115 and 119

**Q.** What about the “Sec61 WT - Hu PD1(ss)” value (WT Sec61α; 0.32 nM) of the same compound?
**A.** 120 and 121 and 116

**Q.** And the “Sec61 WT - Hu TNFa(FL)” value (WT Sec61α; 0.32 nM)?
**A.** 132 and 105 and 123

**Q.** What about the “Sec61 WT - Hu IL2(FL)” value (WT Sec61α; 1.6 nM) of the same compound?
**A.** 108 and 112 and 116

**Q.** And the “Sec61 WT - Hu PD1(ss)” value (WT Sec61α; 1.6 nM)?
**A.** 107 and 115 and 113

**Q.** And the “Sec61 WT - Hu TNFa(FL)” value (WT Sec61α; 1.6 nM)?
**A.** 119 and 96 and 85

**Q.** And the “Sec61 WT - Hu IL2(FL)” value (WT Sec61α; 8 nM)?
**A.** 105 and 102 and 116

**Q.** What about the “Sec61 WT - Hu PD1(ss)” value (WT Sec61α; 8 nM) of the same compound?
**A.** 91 and 108 and 92

**Q.** And the “Sec61 WT - Hu TNFa(FL)” value (WT Sec61α; 8 nM)?
**A.** 123 and 114 and 93

**Q.** What about the “Sec61 WT - Hu IL2(FL)” value (WT Sec61α; 40 nM) of the same compound?
**A.** 89 and 83 and 75

**Q.** What about the “Sec61 WT - Hu PD1(ss)” value (WT Sec61α; 40 nM) of the same compound?
**A.** 62 and 54 and 56

**Q.** What about the “Sec61 WT - Hu TNFa(FL)” value (WT Sec61α; 40 nM) of the same compound?
**A.** 81 and 75 and 70

**Q.** What about the “Sec61 WT - Hu IL2(FL)” value (WT Sec61α; 200 nM) of the same compound?
**A.** 57 and 37 and 42

**Q.** What about the “Sec61 WT - Hu PD1(ss)” value (WT Sec61α; 200 nM) of the same compound?
**A.** 18 (2×) and 19

**Q.** What about the “Sec61 WT - Hu TNFa(FL)” value (WT Sec61α; 200 nM) of the same compound?
**A.** 36 and 30 and 29

**Q.** What about the “Sec61 WT - Hu IL2(FL)” value (WT Sec61α; 1000 nM) of the same compound?
**A.** 7 and 6 (2×)

**Q.** What about the “Sec61 WT - Hu PD1(ss)” value (WT Sec61α; 1000 nM) of the same compound?
**A.** 2

**Q.** What about the “Sec61 WT - Hu TNFa(FL)” value (WT Sec61α; 1000 nM) of the same compound?
**A.** 3 (2×) and 2

**Q.** What about the “Sec61 WT - Hu IL2(FL)” value (WT Sec61α; 5000 nM) of the same compound?
**A.** 1 and 0 (2×)

**Q.** What about the “Sec61 WT - Hu PD1(ss)” value (WT Sec61α; 5000 nM) of the same compound?
**A.** 0

**Q.** And the “Sec61 WT - Hu TNFa(FL)” value (WT Sec61α; 5000 nM)?
**A.** 1 and 0 (2×)

**Q.** And the “Sec61 WT - Hu IL2(FL)” value (WT Sec61α; 25000 nM)?
**A.** 0

**Q.** And the “Sec61 WT - Hu PD1(ss)” value (WT Sec61α; 25000 nM)?
**A.** 0 (2×) and -1

**Q.** What about the “Sec61 WT - Hu TNFa(FL)” value (WT Sec61α; 25000 nM) of the same compound?
**A.** 1 and 0 (2×)

**Q.** And the pIC50 (WT Sec61α; 24 h, doxycycline-induced)?
**A.** ~7.00

**Q.** And the “potency against VCAM-GLuc relative to pPL-GLuc” value (Sec61; HEK293T, 24 h)?
**A.** 20 fold

**Q.** And the remaining activity at 0.000660151 µM (Sec61; [2])?
**A.** 84%

**Q.** What about the remaining activity at 0.00050805 µM (Sec61; [2]) of the same compound?
**A.** 92.6%

**Q.** And the remaining activity at 0.000660151 µM (Sec61; [3])?
**A.** 93.6%

**Q.** What about the remaining activity at 0.004 µM (Sec61; HEK-293T, 24 h, pPL signal peptide, Drug nM (log10) 4, read-out: secreted luciferase activity (% of no-drug control)) of the same compound?
**A.** 14%

**Q.** And the remaining activity at 0.00050805 µM (Sec61; [3])?
**A.** 97.9%

**Q.** What about the pIC50 (Sec61; read-out: IC50, prolactin signal peptide in SP-GLuc secretion assay) of the same compound?
**A.** ~6.00

**Q.** What about the remaining activity at 0.00152 µM (Sec61α (HEK 293 FRT); Drug nM (log10) 0.18303, read-out: luciferase reporter activity (% of no-drug control)) of the same compound?
**A.** 88.7%

**Q.** What about the remaining activity at 0.00457 µM (Sec61α (HEK 293 FRT); Drug nM (log10) 0.660151, read-out: luciferase reporter activity (% of no-drug control)) of the same compound?
**A.** 75.3%

**Q.** And the remaining activity at 0.04115 µM (Sec61α (HEK 293 FRT); Drug nM (log10) 1.61439, read-out: luciferase reporter activity (% of no-drug control))?
**A.** 27%

**Q.** What about the remaining activity at 0.1235 µM (Sec61α (HEK 293 FRT); Drug nM (log10) 2.09151, read-out: luciferase reporter activity (% of no-drug control)) of the same compound?
**A.** 12.8%

**Q.** What about the remaining activity at 0.37 µM (Sec61α (HEK 293 FRT); Drug nM (log10) 2.56864, read-out: luciferase reporter activity (% of no-drug control)) of the same compound?
**A.** 4.89%

**Q.** What about the remaining activity at 1.111 µM (Sec61α (HEK 293 FRT); Drug nM (log10) 3.04576, read-out: luciferase reporter activity (% of no-drug control)) of the same compound?
**A.** 2.41%

**Q.** And the remaining activity at 3.33 µM (Sec61α (HEK 293 FRT); Drug nM (log10) 3.52288, read-out: luciferase reporter activity (% of no-drug control))?
**A.** 2.03%

**Q.** What about the remaining activity at 10 µM (Sec61α (HEK 293 FRT); Drug nM (log10) 4, read-out: luciferase reporter activity (% of no-drug control)) of the same compound?
**A.** 2.36%

**Q.** And the remaining activity at 0.00050805 µM (Sec61α (HEK 293 FRT); Drug nM (log10) -0.29409, read-out: luciferase reporter activity (% of no-drug control))?
**A.** 92.4%

**Q.** And the pIC50 ([1]; Homo sapiens, PBMC, LPS-stimulation, read-out: IC50, IL-1β secretion)?
**A.** < 4.60

**Q.** What about the pIC50 ([1]; Homo sapiens, PBMC, LPS-stimulation, read-out: IC50, IL-23 secretion) of the same compound?
**A.** 6.78

**Q.** And the pIC50 ([1]; Homo sapiens, PBMC, anti-CD3/CD28-stimulation, read-out: IC50, GM-CSF secretion)?
**A.** 6.72

**Q.** What about the pIC50 ([1]; Homo sapiens, PBMC, anti-CD3/CD28-stimulation, read-out: IC50, IL-2 secretion) of the same compound?
**A.** 7.37

**Q.** What about the pIC50 ([1]; Homo sapiens, PBMC, anti-CD3/CD28-stimulation, read-out: IC50, TNFα secretion) of the same compound?
**A.** 7.37

**Q.** What about the pIC50 ([1]; LPS-stimulation, read-out: IC50, IL-23 secretion) of the same compound?
**A.** 6.63 and 6.73 and 6.72

**Q.** What about the “IC50s, secretion of six of seven tested cytokines” value ([1]; activated human PBMCs and mouse splenocytes) of the same compound?
**A.** submicromolar

**Q.** What about the pIC50 ([1]; anti-CD3/CD28-stimulation, read-out: IC50, GM-CSF secretion) of the same compound?
**A.** 6.73 and 6.65 and 6.67

**Q.** And the pIC50 ([1]; anti-CD3/CD28-stimulation, read-out: IC50, IL-2 secretion)?
**A.** 7.41 and 7.57
